Data: ChEMBL document CHEMBL5236668, “Synthesis and biological evaluation of novel SN38-glucose conjugate for colorectal cancer treatment” (Bioorg Med Chem Lett, 2023)
pIC50: −log10 of the molar value. Values after ≈ are worked out from the molar mass of the structure shown. Active and inactive are the calls of the source. No cut-off for these calls is given here.

Key:
[1] = Solubility of the compound in water; assay type: physicochemical
[2] = Solubility of the compound in 0.9% NaCl solution; assay type: physicochemical
[3] = Solubility of the compound in Tween 80 solution; assay type: physicochemical
SW480 [4] = experiment: Induction of apoptosis in human SW480 cells assessed as late apoptotic cells at 25 uM by Annexin V-FITC staining based flow cytometry (reference value: 5.12 %); assay type: functional
HCT-116 [5] = experiment: Induction of apoptosis in human HCT-116 cells assessed as necrotic cells at 25 uM by Annexin V-FITC staining based flow cytometry (reference value: 0.73 %); assay type: functional
HCT-116 [6] = experiment: Induction of apoptosis in human HCT-116 cells assessed as late apoptotic cells at 25 uM by Annexin V-FITC staining based flow cytometry (reference value: 3.51 %); assay type: functional
SW480 [7] = experiment: Anticancer activity against human SW480 cells assessed as inhibition of cell growth by MTT assay; assay type: functional, cell-based
[8] = Toxicity in iv dosed nude mouse xenografted with human SW480 cells assessed as effect on body weight administered at 3 days intervals for 21 days; assay type: organism-based; conditions: in vivo, 504 h, time 21 day
[9] = Cytotoxicity against HEK293T cells assessed as inhibition of cell growth by MTT assay; assay type: toxicity, cell-based, HEK-293T; conditions: human
HCT-116 [10] = experiment: Induction of apoptosis in human HCT-116 cells assessed as early apoptotic cells at 25 uM by Annexin V-FITC staining based flow cytometry (reference value: 1.46 %); assay type: functional
[11] = Cytotoxicity against human L02 cells assessed as inhibition of cell growth by MTT assay; assay type: toxicity, cell-based
HCT-116 [12] = experiment: Anticancer activity against human HCT-116 cells assessed as inhibition of cell growth by MTT assay; assay type: functional, cell-based
SW480 [13] = experiment: Antimigratory activity against human SW480 cells assessed as inhibition of cell migration by wound healing assay relative to control; assay type: functional; parameters: scale not given: the % may be the effect or the level left
SW480 [14] = experiment: Induction of apoptosis in human SW480 cells assessed as viable cells at 25 uM by Annexin V-FITC staining based flow cytometry (reference value: 89.3 %); assay type: functional; conditions: read-out: Activity
SW480 [15] = experiment: Induction of apoptosis in human SW480 cells assessed as necrotic cells at 25 uM by Annexin V-FITC staining based flow cytometry (reference value: 3.05 %); assay type: functional
HCT-116 [16] = experiment: Induction of apoptosis in human HCT-116 cells assessed as viable cells at 25 uM by Annexin V-FITC staining based flow cytometry (reference value: 94.3%); assay type: functional; conditions: read-out: Activity
[17] = Selectivity index, ratio of IC50 for cytotoxicity against human L02 cells to IC50 for anticancer activity against human HCT-116 cells; assay type: toxicity, cell-based; conditions: L02 cells and HCT-116 cells, read-out: Ratio IC50
[18] = Toxicity in nude mouse xenografted with human SW480 cells assessed as effect on MCV level at 0.016 mmol/Kg, iv administered at 3 days intervals for 21 days by routine blood test; assay type: organism-based; conditions: in vivo, 504 h, time 21 day
[19] = Toxicity in nude mouse xenografted with human SW480 cells assessed as effect on creatinine level at 0.016 mmol/Kg, iv administered at 3 days intervals for 21 days; assay type: organism-based; conditions: in vivo, 504 h, time 21 day
[20] = Toxicity in nude mouse xenografted with human SW480 cells assessed as effect on MCH level at 0.016 mmol/Kg, iv administered at 3 days intervals for 21 days by routine blood test; assay type: organism-based; conditions: in vivo, 504 h, time 21 day
HCT-116 [21] = experiment: Inhibition of cell invasion in human HCT-116 cells by Boyden chamber invasion assay; assay type: functional, cell-based; conditions: dose 5-50 µM
[22] = Toxicity in nude mouse xenografted with human SW480 cells assessed as effect on body weight at 0.008 to 0.016 mmol/Kg, iv administered at 3 days intervals for 21 days; assay type: organism-based; conditions: in vivo, 504 h, dose 0.008-0.016 mmol/Kg, time 21 day
[23] = Toxicity in nude mouse xenografted with human SW480 cells assessed as effect on hemoglobin level at 0.016 mmol/Kg, iv administered at 3 days intervals for 21 days by routine blood test; assay type: organism-based; conditions: in vivo, 504 h, time 21 day
[24] = Toxicity in nude mouse xenografted with human SW480 cells assessed as effect on alanine transaminase level at 0.016 mmol/Kg, iv administered at 3 days intervals for 21 days; assay type: organism-based; conditions: in vivo, 504 h, time 21 day
SW480 [25] = experiment: Induction of apoptosis in human SW480 cells assessed as appearance of wrinkled and round cells by Hoechst 33258 staining based analysis; assay type: functional, cell-based
HCT-116 [26] = experiment: Induction of apoptosis in human HCT-116 cells assessed as blue chromatin condensation by Hoechst 33258 staining based analysis; assay type: functional, cell-based
SW480 [27] = experiment: Induction of apoptosis in human SW480 cells assessed as appearance of paired apoptotic vesicles around the nucleus by Hoechst 33258 staining based analysis; assay type: functional, cell-based
[28] = Selectivity index, ratio of IC50 for cytotoxicity against HEK293T cells to IC50 for anticancer activity against human HCT-116 cells; assay type: toxicity, cell-based; conditions: HEK293T cells and HCT-116 cells, read-out: Ratio IC50
SW480 [29] = experiment: Antitumor activity against human SW480 cells xenografted in iv dosed mouse assessed as reduction in tumor volume administered at 3 days intervals for 21 days; assay type: functional, organism-based; conditions: dose 0.008-0.016 mmol/Kg, time 21.0 day
SW480 [30] = experiment: Inhibition of cell invasion in human SW480 cells by Boyden chamber invasion assay; assay type: functional, cell-based; conditions: dose 5-50 µM
SW480 [31] = experiment: Induction of apoptosis in human SW480 cells assessed as early apoptotic cells at 25 uM by Annexin V-FITC staining based flow cytometry (reference value: 2.53 %); assay type: functional
[32] = Toxicity in nude mouse xenografted with human SW480 cells assessed as effect on WBC level at 0.016 mmol/Kg, iv administered at 3 days intervals for 21 days by routine blood test; assay type: organism-based; conditions: in vivo, 504 h, time 21 day
SW480 [33] = experiment: Antitumor activity against human SW480 cells xenografted in mouse assessed as reduction in tumor weight at 0.008 to 0.016 mmol/Kg, iv administered at 3 days intervals for 21 days; assay type: functional, organism-based; conditions: dose 0.008-0.016 mmol/Kg, time 21.0 day
SW480 [34] = experiment: Induction of apoptosis in human SW480 cells assessed as blue chromatin condensation by Hoechst 33258 staining based analysis; assay type: functional, cell-based
[35] = Toxicity in nude mouse xenografted with human SW480 cells assessed as effect on cholesterol level at 0.016 mmol/Kg, iv administered at 3 days intervals for 21 days; assay type: organism-based; conditions: in vivo, 504 h, time 21 day
[36] = Selectivity index, ratio of IC50 for cytotoxicity against human L02 cells to IC50 for anticancer activity against human SW480 cells; assay type: toxicity, cell-based; conditions: L02 cells and SW480 cells, read-out: Ratio IC50
[37] = Toxicity in nude mouse xenografted with human SW480 cells assessed as effect on total protein level at 0.016 mmol/Kg, iv administered at 3 days intervals for 21 days; assay type: organism-based; conditions: in vivo, 504 h, time 21 day
HCT-116 [38] = experiment: Induction of apoptosis in human HCT-116 cells assessed as appearance of paired apoptotic vesicles around the nucleus by Hoechst 33258 staining based analysis; assay type: functional, cell-based
[39] = Toxicity in nude mouse xenografted with human SW480 cells assessed as effect on PDW at 0.016 mmol/Kg, iv administered at 3 days intervals for 21 days by routine blood test; assay type: organism-based; conditions: in vivo, 504 h, time 21 day
SW480 [40] = experiment: Antitumor activity against human SW480 cells xenografted in mouse assessed as reduction in tumor growth at 0.008 to 0.016 mmol/Kg, iv administered at 3 days intervals for 21 days; assay type: functional, organism-based; conditions: dose 0.008-0.016 mmol/Kg, time 21.0 day
HCT-116 [41] = experiment: Induction of apoptosis in human HCT-116 cells assessed as appearance of wrinkled and round cells by Hoechst 33258 staining based analysis; assay type: functional, cell-based
[42] = Selectivity index, ratio of IC50 for cytotoxicity against HEK293T cells to IC50 for anticancer activity against human SW480 cells; assay type: toxicity, cell-based; conditions: HEK293T cells and SW480 cells, read-out: Ratio IC50
[43] = Toxicity in nude mouse xenografted with human SW480 cells assessed as effect on blood urea nitrogen level at 0.016 mmol/Kg, iv administered at 3 days intervals for 21 days; assay type: organism-based; conditions: in vivo, 504 h, time 21 day
HCT-116 [44] = experiment: Antimigratory activity against human HCT-116 cells assessed as inhibition of cell migration by wound healing assay relative to control; assay type: functional; parameters: scale not given: the % may be the effect or the level left
[45] = Toxicity in nude mouse xenografted with human SW480 cells assessed as effect on albumin level at 0.016 mmol/Kg, iv administered at 3 days intervals for 21 days; assay type: organism-based; conditions: in vivo, 504 h, time 21 day
[46] = Toxicity in nude mouse xenografted with human SW480 cells assessed as effect on RBC level at 0.016 mmol/Kg, iv administered at 3 days intervals for 21 days by routine blood test; assay type: organism-based, Erythrocyte; conditions: in vivo, 504 h, time 21 day

Compound `CCc1c2c(nc3ccc(O)cc13)-c1cc3c(c(=O)n1C2)COC(=O)[C@]3(O)CC` [7-ETHYL-10-HYDROXYCAMPTOTHECIN] has a solubility [1] of 7.74 µg/mL (≈ 19.7 µM), a solubility [2] of 17.6 µg/mL (≈ 45 µM) and a solubility [3] of 77.4 µg/mL (≈ 197 µM).

With `CCc1c2c(nc3ccc(OC(=O)N4CCC(N5CCCCC5)CC4)cc13)-c1cc3c(c(=O)n1C2)COC(=O)[C@]3(O)CC` [IRINOTECAN] the Activity (SW480 [4]) was 10.7%, the Activity (HCT-116 [5]) was 0.256% and the Activity (HCT-116 [6]) was 6.15%. For the same compound, the pIC50 (SW480 [7]) was 4.95, the Activity [8] was “Non-Toxic” and the pIC50 [9] was 4.70. The Activity (HCT-116 [10]) was 1.51%, the pIC50 [11] was 4.65 and the solubility [1] was 5590 µg/mL (≈ 9530 µM). It also gave a pIC50 (HCT-116 [12]) of 4.85, an Activity (SW480 [13]) of 74.5% and a viability at 25 µM (SW480 [14]) of 85%. The solubility [2] was 1200 µg/mL (≈ 2050 µM), the Activity (SW480 [15]) was 0.871% and the viability at 25 µM (HCT-116 [16]) was 92.5%.

With `CCc1c2c(nc3ccc(OC(=O)NCCOCc4cn(CCO[C@H]5O[C@@H](CO)[C@H](O)[C@@H](O)[C@@H]5O)nn4)cc13)-c1cc3c(c(=O)n1C2)COC(=O)[C@]3(O)CC` the selectivity ratio [17] was 5.7, the Activity [18] was “Non-Toxic” and the Activity [19] was “Non-Toxic”. The Activity [20] was “Non-Toxic”, the inhibition (HCT-116 [21]) was “Dose-Dependent Effect” and the Activity (SW480 [4]) was 38.7%. The Activity (HCT-116 [5]) was 2.2%, the Activity [22] was “Non-Toxic” and the Activity [23] was “Non-Toxic”. For the same compound, the Activity (HCT-116 [6]) was 14.1%, the Activity [24] was “Non-Toxic” and the pIC50 (SW480 [7]) was 6.80. For the same compound, the Activity (SW480 [25]) was “Active”, the pIC50 [9] was 4.70 and the Activity (HCT-116 [26]) was “Active”. The Activity (HCT-116 [10]) was 3.67%, the Activity (SW480 [27]) was “Active” and the selectivity ratio [28] was 73.5. For the same compound, the pIC50 [11] was 5.81, the solubility [1] was 2530 µg/mL (≈ 3300 µM) and the Activity (SW480 [29]) was “Dose-Dependent Effect”. The pIC50 (HCT-116 [12]) was 6.57, the inhibition (SW480 [30]) was “Dose-Dependent Effect” and the Activity (SW480 [31]) was 6%. For the same compound, the Activity [32] was “Non-Toxic”, the Activity (SW480 [33]) was “Active” and the Activity (SW480 [34]) was “Active”. For the same compound, the Activity [35] was “Non-Toxic”, the Activity (SW480 [13]) was 26.7% and the selectivity ratio [36] was 9.62. For the same compound, the viability at 25 µM (SW480 [14]) was 50%, the Activity [37] was “Non-Toxic” and the Activity (HCT-116 [38]) was “Active”. For the same compound, the Activity (SW480 [15]) was 5.33%, the Activity [39] was “Non-Toxic” and the viability at 25 µM (HCT-116 [16]) was 80.1%. For the same compound, the Activity (SW480 [40]) was “Active”, the Activity (HCT-116 [41]) was “Active” and the selectivity ratio [42] was 124. The Activity [43] was “Non-Toxic”, the Activity (HCT-116 [44]) was 20.1% and the Activity [45] was “Non-Toxic”. The Activity [46] was “Non-Toxic”.
